According to patent US20110268653A1, “Compositions and Methods Related to Acid Stable Lipid Nanospheres” (The Board of Regents of the University of Texas System, priority 2010, published 2011):

SMILES	melting point
CCCCCCCCCCCCCCCCCC(=O)N1C(CCCCCCCCCCCCCCCCC)NC(=O)CC1C(=O)O (stereo not shown) [ALA17, 17, 2-Heptadecyl-6-oxo-3-stearoylhexahydropyrimidine-4-carboxylic acid]	107 to 111 °C
CCCCCC(=O)N1C(CCCCC)NC(=O)CC1C(=O)O (stereo not shown) [Lipid 1a, 3-Hexanoyl-6-oxo-2-pentylhexahydropyrimidine-4-carboxylic acid]	55 to 56 °C
CCCCCCCCCCCC(=O)N1C(CCCCC)NC(=O)CC1C(=O)O (stereo not shown) [Lipid 1b, 3-Dodecanoyl-6-oxo-2-pentylhexahydropyrimidine-4-carboxylic acid]	118 to 120 °C
CCCCCCCCCCCC1NC(=O)CC(C(=O)O)N1C(=O)CCCCC (stereo not shown) [Lipid 1c, 3-Hexanoyl-6-oxo-2-undecylhexahydropyrimidine-4-carboxylic acid]	106 to 107 °C

Results, then the compound that gave them:

melting point	SMILES
110 to 112 °C	CCCCCCCCCCCC(=O)N1C(CCCCCCCCCCC)NC(=O)CC1C(=O)O (stereo not shown) [Lipid 1d, 3-Dodecanoyl-6-oxo-2-undecylhexahydropyrimidine-4-carboxylic acid]
105 to 109 °C	CCCCCCCCCCCCCCCCCC(=O)N1C(CCCCCCCCCCC)NC(=O)CC1C(=O)O (stereo not shown) [Lipid 1e, 6-Oxo-3-stearoyl-2-undecylhexahydropyrimidine-4-carboxylic acid]
104 to 107 °C	CCCCCCCCCCCCCCCCCC1NC(=O)CC(C(=O)O)N1C(=O)CCCCCCCCCCC (stereo not shown) [Lipid 1f, 3-Dodecanoyl-2-heptadecyl-6-oxohexahydropyrimidine-4-carboxylic acid]
